According to article PMC7699592, “Interaction between the Lentil Lipid Transfer Protein Lc-LTP2 and Its Novel Signal Ligand PI(4,5)P2” (Membranes, 2020):

Legend:
Format in all cases: binding
[1] = target: T1, LTP from strawberry (strawberry LTP) (Fragaria x ananassa, UniProt Q8VX12); assay: protein-lipid overlay on membrane lipid strips; conditions: lipid immobilised, […] per spot; PBS; anti-Lc-LTP2 antibody detection
T1 construct: gene lpt46; recombinant, overexpressed in Escherichia coli, purified; four disulfide bonds
T1 sequence (Q8VX12 27-117): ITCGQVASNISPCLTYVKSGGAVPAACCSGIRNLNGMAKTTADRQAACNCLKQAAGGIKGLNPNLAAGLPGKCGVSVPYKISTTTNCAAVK

[2] = target: T2, LTP from mugwort (mugwort LTP) (Artemisia vulgaris, UniProt C4MGG9); assay: protein-lipid overlay on membrane lipid strips; conditions: lipid immobilised, 100 pM per spot; PBS; anti-Lc-LTP2 antibody detection
T2 construct: gene Art v 3; recombinant, overexpressed in Escherichia coli, purified; four disulfide bonds
T2 sequence (C4MGG9 24-114): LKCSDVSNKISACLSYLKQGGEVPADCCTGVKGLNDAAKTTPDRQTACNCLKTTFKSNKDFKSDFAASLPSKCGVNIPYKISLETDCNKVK

[3] = target: T3, LTP from ragweed (ragweed LTP) (Ambrosia artemisiifolia, UniProt O04004); assay: protein-lipid overlay on membrane lipid strips; conditions: lipid immobilised, 100 pM per spot; PBS; anti-Lc-LTP2 antibody detection
T3 construct: recombinant, overexpressed in Escherichia coli, purified; four disulfide bonds
T3 sequence (O04004 26-118): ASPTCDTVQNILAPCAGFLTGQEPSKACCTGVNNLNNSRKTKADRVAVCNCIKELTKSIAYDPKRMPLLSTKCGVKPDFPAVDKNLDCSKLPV

[4] = target: T2, LTP from mugwort (mugwort LTP); assay: TNS fluorescent probe displacement; conditions: 4 uM LTP, 10 uM PI(4,5)P2, 3 uM TNS, pH 7.0, 25 °C
Lc-LTP2 [5] = target: T4, Lc-LTP2 (Lens culinaris, UniProt A0AT29, Y105A); assay: TNS fluorescent probe displacement; conditions: 4 uM LTP, 10 uM PI(4,5)P2, 3 uM TNS, pH 7.0, 25 °C
T4 construct: recombinant mature protein, overexpressed in Escherichia coli, purified; four disulfide bonds
T4 sequence (A0AT29 26-118 Y105A): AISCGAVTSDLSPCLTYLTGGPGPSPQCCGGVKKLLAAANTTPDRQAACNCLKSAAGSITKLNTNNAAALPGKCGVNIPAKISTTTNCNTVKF

[6] = target: T5, LTP from strawberry (strawberry LTP) (Fragaria x ananassa, UniProt Q8VX12); assay: TNS fluorescent probe displacement; conditions: 4 uM LTP, 10 uM PI(4,5)P2, 3 uM TNS, pH 7.0, 25 °C
T5 construct: recombinant, overexpressed in Escherichia coli, purified; four disulfide bonds

[7] = target: T3, LTP from ragweed (ragweed LTP); assay: TNS fluorescent probe displacement; conditions: 4 uM LTP, 10 uM PI(4,5)P2, 3 uM TNS, pH 7.0, 25 °C
Lc-LTP2 [8] = target: T6, Lc-LTP2 (Lens culinaris, UniProt A0AT29, R70A/Y105A); assay: TNS fluorescent probe displacement; conditions: 4 uM LTP, 10 uM PI(4,5)P2, 3 uM TNS, pH 7.0, 25 °C
T6 construct: recombinant mature protein, overexpressed in Escherichia coli, purified; four disulfide bonds
T6 sequence (A0AT29 26-118 R70A/Y105A): as the sequence (A0AT29 26-118 Y105A) above, with R45A counted along it

Lc-LTP2 [9] = target: T7, Lc-LTP2 (Lens culinaris, UniProt A0AT29); assay: TNS fluorescent probe displacement; conditions: 4 uM LTP, 10 uM PI(4,5)P2, 3 uM TNS, pH 7.0, 25 °C
T7 construct: recombinant mature protein, overexpressed in Escherichia coli, purified; four disulfide bonds
T7 sequence (A0AT29 26-118): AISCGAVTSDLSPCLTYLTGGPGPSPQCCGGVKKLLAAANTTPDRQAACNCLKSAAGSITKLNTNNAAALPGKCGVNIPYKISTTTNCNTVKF

Molecule | protein-lipid overlay on membrane lipid strips [1] | protein-lipid overlay on membrane lipid strips [2] | protein-lipid overlay on membrane lipid strips [3] | % reduction of LTP-TNS fluorescence [4] [%] | % reduction of LTP-TNS fluorescence (Lc-LTP2 [5]) [%] | % reduction of LTP-TNS fluorescence [6] [%] | % reduction of LTP-TNS fluorescence [7] [%] | % reduction of LTP-TNS fluorescence (Lc-LTP2 [8]) [%] | % reduction of LTP-TNS fluorescence (Lc-LTP2 [9]) [%]
CCCCCCCCCCCCCCCC(=O)OC[C@H](COP(=O)(O)O[C@@H]1[C@H](O)[C@H](O)[C@@H](OP(=O)(O)O)[C@H](OP(=O)(O)O)[C@H]1O)OC(=O)CCCCCCCCCCCCCCC [PI(4,5)P2 diC16] | Protein-lipid overlay assays with other LTPs from the abovementioned plants led to the same results | Protein-lipid overlay assays with other LTPs from the abovementioned plants led to the same results | Protein-lipid overlay assays with other LTPs from the abovementioned plants led to the same results |  |  |  |  |  | 
PI(4,5)P2 |  |  |  | 11 | 8 | 14 | 9 | 16 | 21
